{"source": "patent US20140342379A1", "about": "“Means and Methods for Assessing Gonadal Toxicity” (BASF SE, priority 2011, published 2014)", "tested_on": "male rats", "experiment": "28-day repeated dose study, plasma metabolite profiling (GC-MS, LC-MS), male rats", "assay_type": "in vivo, rat", "excerpt": "Drinking water was also offered ad libitum.", "note": "Marks after values point to notes of the source that are not given here.", "data": [{"compound": "COCCO", "note": "[2-Methoxyethanol]", "values": [{"measurement": "3-Hydroxybutyrate, plasma, treatment ratio versus control", "setting": "day 7", "value": "0.45*"}, {"measurement": "3-O-Methylsphingosine (d18:1), plasma, treatment ratio versus control", "setting": "day 7", "value": "0.53*"}, {"measurement": "5-Oxoproline, plasma, treatment ratio versus control", "setting": "day 7", "value": "0.76*"}, {"measurement": "Campesterol, plasma, treatment ratio versus control", "setting": "day 7", "value": "0.58*"}, {"measurement": "Ceramide (d18:1,C24:0), plasma, treatment ratio versus control", "setting": "day 7", "value": "0.75*"}, {"measurement": "Ceramide (d18:1,C24:1), plasma, treatment ratio versus control", "setting": "day 7", "value": 0.82}, {"measurement": "Cholesterol, plasma, treatment ratio versus control", "setting": "day 7", "value": "0.58*"}, {"measurement": "Coenzyme Q9, plasma, treatment ratio versus control", "setting": "day 7", "value": "0.57*"}, {"measurement": "Coenzyme Q10, plasma, treatment ratio versus control", "setting": "day 7", "value": "0.7*"}, {"measurement": "Dodecanol, plasma, treatment ratio versus control", "setting": "day 7", "value": 0.8}, {"measurement": "Glutamine, plasma, treatment ratio versus control", "setting": "day 7", "value": "0.68*"}, {"measurement": "Histidine, plasma, treatment ratio versus control", "setting": "day 7", "value": 1.13}, {"measurement": "Isopalmitic acid (C16:0), plasma, treatment ratio versus control", "setting": "day 7", "value": 1.03}, {"measurement": "Lignoceric acid (C24:0), plasma, treatment ratio versus control", "setting": "day 7", "value": "0.61*"}, {"measurement": "Linoleic acid (C18:cis[9,12]2), plasma, treatment ratio versus control", "setting": "day 7", "value": 1.07}, {"measurement": "Lysine, plasma, treatment ratio versus control", "setting": "day 7", "value": "1.22*"}, {"measurement": "Myristic acid (C14:0), plasma, treatment ratio versus control", "setting": "day 7", "value": 0.87}, {"measurement": "Palmitic acid (C16:0), plasma, treatment ratio versus control", "setting": "day 7", "value": 0.92}, {"measurement": "Palmitoleic acid (C16:cis[9]1), plasma, treatment ratio versus control", "setting": "day 7", "value": "0.71*"}, {"measurement": "Sphingomyelin (d18:1,C16:0), plasma, treatment ratio versus control", "setting": "day 7", "value": "0.84*"}, {"measurement": "Sphingomyelin (d18:1,C24:0), plasma, treatment ratio versus control", "setting": "day 7", "value": "0.68*"}, {"measurement": "Stearic acid (C18:0), plasma, treatment ratio versus control", "setting": "day 7", "value": "0.8*"}, {"measurement": "Threonine, plasma, treatment ratio versus control", "setting": "day 7", "value": "1.72*"}, {"measurement": "alpha-Tocopherol, plasma, treatment ratio versus control", "setting": "day 7", "value": 0.78}, {"measurement": "erythro-Sphingosine, plasma, treatment ratio versus control", "setting": "day 7", "value": "0.57*"}, {"measurement": "3-Hydroxybutyrate, plasma, treatment ratio versus control", "setting": "day 14", "value": "0.24*"}, {"measurement": "3-O-Methylsphingosine (d18:1), plasma, treatment ratio versus control", "setting": "day 14", "value": "0.67*"}, {"measurement": "5-Oxoproline, plasma, treatment ratio versus control", "setting": "day 14", "value": "0.67*"}, {"measurement": "Ceramide (d18:1,C24:0), plasma, treatment ratio versus control", "setting": "day 14", "value": "0.7*"}, {"measurement": "Ceramide (d18:1,C24:1), plasma, treatment ratio versus control", "setting": "day 14", "value": "0.62*"}, {"measurement": "Cholesterol, plasma, treatment ratio versus control", "setting": "day 14", "value": "0.61*"}, {"measurement": "Coenzyme Q9, plasma, treatment ratio versus control", "setting": "day 14", "value": "0.58*"}, {"measurement": "Coenzyme Q10, plasma, treatment ratio versus control", "setting": "day 14", "value": "0.49*"}, {"measurement": "Dodecanol, plasma, treatment ratio versus control", "setting": "day 14", "value": "0.77*"}, {"measurement": "Glutamine, plasma, treatment ratio versus control", "setting": "day 14", "value": 0.71}, {"measurement": "Histidine, plasma, treatment ratio versus control", "setting": "day 14", "value": "1.4*"}, {"measurement": "Isopalmitic acid (C16:0), plasma, treatment ratio versus control", "setting": "day 14", "value": "0.43*"}, {"measurement": "Lignoceric acid (C24:0), plasma, treatment ratio versus control", "setting": "day 14", "value": "0.46*"}, {"measurement": "Linoleic acid (C18:cis[9,12]2), plasma, treatment ratio versus control", "setting": "day 14", "value": "0.77*"}, {"measurement": "Myristic acid (C14:0), plasma, treatment ratio versus control", "setting": "day 14", "value": "0.57*"}, {"measurement": "Palmitic acid (C16:0), plasma, treatment ratio versus control", "setting": "day 14", "value": "0.75*"}, {"measurement": "Palmitoleic acid (C16:cis[9]1), plasma, treatment ratio versus control", "setting": "day 14", "value": "0.39*"}, {"measurement": "Sphingomyelin (d18:1,C16:0), plasma, treatment ratio versus control", "setting": "day 14", "value": "0.88*"}, {"measurement": "Sphingomyelin (d18:1,C24:0), plasma, treatment ratio versus control", "setting": "day 14", "value": "0.56*"}, {"measurement": "Stearic acid (C18:0), plasma, treatment ratio versus control", "setting": "day 14", "value": "0.84*"}, {"measurement": "Threonine, plasma, treatment ratio versus control", "setting": "day 14", "value": "2.93*"}, {"measurement": "alpha-Tocopherol, plasma, treatment ratio versus control", "setting": "day 14", "value": "0.76*"}, {"measurement": "erythro-Sphingosine, plasma, treatment ratio versus control", "setting": "day 14", "value": "0.67*"}]}]}
